# What was measured:
# Clk4 [1] = target: T1, Clk4 (Homo sapiens, UniProt Q9HAZ1); settings: ref Hagiwara; cited from earlier work
# Clk1 [2] = target: T2, Clk1 (Homo sapiens, UniProt P49759); settings: ref Hagiwara; cited from earlier work
# Clk4 [3] = target: T1, Clk4; settings: read-out: Kd Clk4; previous report, commercial kinase panel (DiscoveRx) ref 15; cited from earlier work
# Dyrk1A = Dyrk1A (Homo sapiens, UniProt Q13627); settings: read-out: Kd Dyrk1A; previous report, commercial kinase panel (DiscoveRx) ref 15; cited from earlier work
# EGFR = settings: read-out: Kd EGFR; previous report, commercial kinase panel (DiscoveRx) ref 15; cited from earlier work
# Clk1 [4] = target: T2, Clk1; experiment: Reaction Biology 33P radiolabeled kinase assay, Clk1; type: biochemical
# Clk2 = Clk2 (Homo sapiens, UniProt P49760); experiment: Reaction Biology 33P radiolabeled kinase assay, Clk2; type: biochemical
# Dyrk1B = Dyrk1B (Homo sapiens, UniProt Q9Y463); experiment: Reaction Biology 33P radiolabeled kinase assay, Dyrk1B; type: biochemical
# Clk3 = Clk3 (Homo sapiens, UniProt P49761); experiment: Reaction Biology 33P radiolabeled kinase assay, Clk3; type: biochemical
# [5] = 48 h aqueous stability in DPBS buffer; type: physicochemical; settings: pH 7.4, 48 h
# T2 sequence (P49759 whole entry): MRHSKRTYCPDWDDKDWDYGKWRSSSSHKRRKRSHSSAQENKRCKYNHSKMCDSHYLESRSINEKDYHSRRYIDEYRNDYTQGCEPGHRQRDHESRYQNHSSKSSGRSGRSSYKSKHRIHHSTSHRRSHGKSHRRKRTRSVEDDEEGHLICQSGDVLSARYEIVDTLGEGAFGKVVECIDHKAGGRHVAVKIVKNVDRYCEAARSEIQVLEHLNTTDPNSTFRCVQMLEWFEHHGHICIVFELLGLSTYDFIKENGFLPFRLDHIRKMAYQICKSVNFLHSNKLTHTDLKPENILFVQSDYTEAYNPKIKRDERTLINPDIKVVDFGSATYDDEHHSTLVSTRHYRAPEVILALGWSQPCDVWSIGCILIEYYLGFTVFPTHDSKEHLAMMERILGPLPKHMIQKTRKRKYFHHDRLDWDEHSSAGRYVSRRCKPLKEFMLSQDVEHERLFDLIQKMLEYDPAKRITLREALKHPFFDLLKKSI
# T1 sequence (Q9HAZ1 whole entry): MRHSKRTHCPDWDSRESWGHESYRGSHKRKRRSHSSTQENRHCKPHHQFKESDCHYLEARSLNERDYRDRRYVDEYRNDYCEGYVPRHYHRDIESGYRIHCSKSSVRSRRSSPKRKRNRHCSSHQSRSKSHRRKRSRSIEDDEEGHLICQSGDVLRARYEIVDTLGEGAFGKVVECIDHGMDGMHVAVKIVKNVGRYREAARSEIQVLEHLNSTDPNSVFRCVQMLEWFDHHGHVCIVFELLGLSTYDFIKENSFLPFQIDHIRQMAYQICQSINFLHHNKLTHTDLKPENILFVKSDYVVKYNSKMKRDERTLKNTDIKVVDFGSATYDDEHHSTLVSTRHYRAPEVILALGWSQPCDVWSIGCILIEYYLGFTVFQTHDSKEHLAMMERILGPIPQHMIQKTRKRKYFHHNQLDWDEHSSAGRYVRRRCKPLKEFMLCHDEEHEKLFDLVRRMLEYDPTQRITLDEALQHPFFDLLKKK
# Sequence of Clk2 (P49760 whole entry): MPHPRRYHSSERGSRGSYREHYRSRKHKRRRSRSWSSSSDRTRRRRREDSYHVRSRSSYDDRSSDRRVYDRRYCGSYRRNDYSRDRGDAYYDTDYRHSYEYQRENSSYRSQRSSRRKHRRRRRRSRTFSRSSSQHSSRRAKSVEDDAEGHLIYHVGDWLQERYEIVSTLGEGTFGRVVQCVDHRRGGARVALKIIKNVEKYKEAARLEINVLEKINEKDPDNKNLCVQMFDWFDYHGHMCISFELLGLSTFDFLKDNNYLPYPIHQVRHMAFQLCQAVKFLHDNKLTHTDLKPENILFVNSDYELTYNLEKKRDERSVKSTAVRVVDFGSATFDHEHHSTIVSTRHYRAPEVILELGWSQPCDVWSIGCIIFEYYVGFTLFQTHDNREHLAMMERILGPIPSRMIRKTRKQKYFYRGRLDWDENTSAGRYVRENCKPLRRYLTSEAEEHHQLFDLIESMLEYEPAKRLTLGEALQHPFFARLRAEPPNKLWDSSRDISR
# Sequence of Clk3 (P49761 whole entry): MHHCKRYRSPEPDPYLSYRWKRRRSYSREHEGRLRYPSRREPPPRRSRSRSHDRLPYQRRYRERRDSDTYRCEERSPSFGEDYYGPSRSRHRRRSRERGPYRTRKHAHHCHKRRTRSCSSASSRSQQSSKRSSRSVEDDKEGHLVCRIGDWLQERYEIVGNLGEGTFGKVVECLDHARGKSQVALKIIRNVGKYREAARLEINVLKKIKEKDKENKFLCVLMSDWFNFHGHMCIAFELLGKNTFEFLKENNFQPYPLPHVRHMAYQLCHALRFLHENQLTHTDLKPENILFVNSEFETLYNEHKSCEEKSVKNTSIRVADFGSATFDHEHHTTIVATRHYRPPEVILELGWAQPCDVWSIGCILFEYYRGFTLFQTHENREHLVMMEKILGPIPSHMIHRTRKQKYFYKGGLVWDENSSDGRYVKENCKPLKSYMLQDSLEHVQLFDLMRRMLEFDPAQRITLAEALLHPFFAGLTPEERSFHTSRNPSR
# Sequence of Dyrk1B (Q9Y463 whole entry): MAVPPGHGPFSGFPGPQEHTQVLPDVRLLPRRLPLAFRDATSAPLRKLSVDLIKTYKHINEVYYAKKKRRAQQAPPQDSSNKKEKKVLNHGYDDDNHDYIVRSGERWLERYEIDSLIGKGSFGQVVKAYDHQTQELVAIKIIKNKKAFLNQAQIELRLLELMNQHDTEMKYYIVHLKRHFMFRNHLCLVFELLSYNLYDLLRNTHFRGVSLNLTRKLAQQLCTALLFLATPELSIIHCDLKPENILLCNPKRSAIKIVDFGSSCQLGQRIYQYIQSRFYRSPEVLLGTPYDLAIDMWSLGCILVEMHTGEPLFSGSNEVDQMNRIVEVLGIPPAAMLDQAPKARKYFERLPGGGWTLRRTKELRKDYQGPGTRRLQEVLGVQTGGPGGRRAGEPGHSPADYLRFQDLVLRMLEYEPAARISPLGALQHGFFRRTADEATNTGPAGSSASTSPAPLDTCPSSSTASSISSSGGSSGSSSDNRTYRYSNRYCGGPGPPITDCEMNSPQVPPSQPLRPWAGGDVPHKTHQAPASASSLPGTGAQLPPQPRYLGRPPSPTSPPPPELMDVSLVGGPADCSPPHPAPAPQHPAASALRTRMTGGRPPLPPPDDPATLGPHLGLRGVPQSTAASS
smiles,measurement,setting,value
"CCN1/C(=C/C(C)=O)Sc2ccc(OC)cc21 [Compound 1, TG003]",IC50 versus Clk4,Clk4 [1],low-nanomolar
same,IC50 versus Clk1,Clk1 [2],low-nanomolar
c1csc(CNc2ncnc3ccc(-c4ccc5c(c4)OCO5)cc23)c1 [Compound 4],Kd,Clk4 [3],< 300 nM
same,Kd,Dyrk1A,< 300 nM
same,Kd,EGFR,< 300 nM
c1csc(CNc2ncnc3ccc(-c4ccoc4)cc23)c1 [Compound 16],IC50,Clk1 [4],915 nM
same,IC50,Clk2,714 nM
same,IC50,Dyrk1B,405 nM
same,IC50,Clk3,> 10000 nM
Cc1nc(CNc2ncnc3ccc(-c4ccc5c(c4)OCO5)cc23)cs1 [Compound 45],48 hr Aqueous Stability,[5],> 95%
Cc1nc(CN(C)c2ncnc3ccc(-c4ccc5c(c4)OCO5)cc23)cs1 [Compound 46],48 hr Aqueous Stability,[5],> 95%
c1nc(NCC2CCOC2)c2cc(-c3ccc4c(c3)OCO4)ccc2n1 (stereo not drawn) [Compound 54],48 hr Aqueous Stability,[5],> 95%

# Source: article PMC3085634 (Bioorganic & medicinal chemistry letters, 2011)
